Reference: patent US8741836B2, “Polypeptides” (Novo Nordisk A/S, priority 2011, dated 2014)
Starred links: 1 amine or outer side, 2 acyl side, 3 side chain; linkers in the order of their positions; H or OH if unused. Positions of bridges follow the written chain, without caps; N, C: chain ends. Non-standard residues stand in square brackets, D forms with d. Residues, ends and D or L forms follow the SMILES beside them. *: point of attachment. C20 diacid = O=C(O)CCCCCCCCCCCCCCCCCCC(=O)*; C18 diacid = O=C(O)CCCCCCCCCCCCCCCCC(=O)*; γGlu = O=C(O)[C@H](CCC(=O)[*:2])N[*:1]; Orn = NCCC[C@H](N)C(=O)O; AEEA = NCCOCCOCC(=O)O

System: ad libitum fed rat
Experiment: Assay (I) efficacy testing on appetite (food intake) using an ad libitum fed rat model
Assay type: in vivo, Sprague Dawley (SD) rats
Description: In the following examples reference is made to the following Assays: • Assay (I)—Experimental protocol for efficacy testing on appetite using an ad libitum fed rat model • ASSAY (II)a—Functional assay—Human calcitonin and amylin receptor assay • ASSAY (II)b—Functional assay—Rat calcitonin and rat amylin receptor assays • ASSAY (III)—ThT fibrillation assays for the assessment of physical stability of protein formulations • ASSAY (IV)—Determination of solubility • ASSAY (V)—Determination of binding to the human amylin receptor • ASSAY (VI)—Determination of the binding to the rat amylin receptor • ASSAY (VII)—Determination of binding to the human calcitonin receptor • ASSAY (VIII)—Determination of binding to the rat calcitonin receptor • ASSAY (IX)—pK—Determination of T½ in mini-pig • ASSAY (X)—pK—Determination of T½ in rat Assay (I)—Experimental protocol for Efficacy Testing on Appetite Using an Ad Libitum Fed Rat Model
Sprague Dawley (SD) rats from Taconic Europe, Denmark are used for the experiments. The rats have a body weight 200-250 g at the start of experiment. The rats arrive at least 10-14 days before start of experiment to allow acclimatization to experimental settings. During this period the animals are handled at least 2 times. After arrival rats are housed individually for one week in a reversed light/dark phase (meaning that lights are off during daytime and on during nighttime) […]. Since rats are normally active and eat their major part of their daily food intake during the dark period, rats are dosed in the morning right before lights are turned off. This set-up results in the lowest data variation and highest test sensitivity. The experiment is conducted in the rats' home cages and rats have free access to food and water throughout the acclimatization period and the experiment period. Each dose of derivative is tested in a group of 5-8 rats. A vehicle group of 6-8 rats is included in each set of testing. Rats are dosed once according to body weight with a 0.01-3 mg/kg solution administered intraperitoneally (ip), orally (po) or subcutaneously (sc). The time of dosing is recorded for each group. After dosing, the rats are returned to their home cages, where they then have access to food and water. The food consumption is recorded individually continuously by on-line registration or manually every hour for 7 hours, and then after 24 h and sometimes 48 h. At the end of the experimental session, the animals are euthanised.
The individual data are recorded in Microsoft excel sheets. Outliers are excluded after applying the Grubbs statistical evaluation test for outliers, and the result is presented graphically using the GraphPad Prism program.

**Q.** With `CC[C@H](C)[C@H](NC(=O)[C@@H]1CCCN1C(=O)CNC(=O)[C@H](Cc1ccccc1)NC(=O)[C@H](CC(N)=O)NC(=O)[C@H](CC(N)=O)NC(=O)[C@H](CO)NC(=O)[C@H](CO)NC(=O)[C@H](CCCNC(=N)N)NC(=O)[C@H](Cc1c[nH]cn1)NC(=O)[C@H](CC(C)C)NC(=O)[C@H](Cc1ccccc1)NC(=O)[C@H](CCC(=O)O)NC(=O)[C@H](C)NC(=O)[C@H](CC(C)C)NC(=O)[C@H](CCCNC(=N)N)NC(=O)[C@H](CCC(N)=O)NC(=O)[C@@H](NC(=O)[C@H](C)NC(=O)[C@@H]1CSSC[C@H](NC(=O)[C@H](CCC(=O)O)NC(=O)CC[C@H](NC(=O)CCCCCCCCCCCCCCCCCCC(=O)O)C(=O)O)C(=O)N[C@@H](CC(N)=O)C(=O)N[C@@H]([C@@H](C)O)C(=O)N[C@@H](C)C(=O)N[C@@H]([C@@H](C)O)C(=O)N1)[C@@H](C)O)C(=O)N[C@@H](CC(C)C)C(=O)N1CCC[C@H]1C(=O)N1CCC[C@H]1C(=O)N[C@H](C(=O)N[C@@H](CC(N)=O)C(=O)N[C@H](C(=O)NCC(=O)N[C@@H](CO)C(=O)N[C@@H](CC(N)=O)C(=O)N[C@H](C(=O)N1CCC[C@H]1C(N)=O)[C@@H](C)O)C(C)C)[C@@H](C)O` [Example 10, N-alpha-[(S)-4-Carboxy-4-(19-carboxynonadecanoylamino)butyryl]-[Glu1,Glu14,His17,Arg18,Pro37]-pramlintide] ({C20 diacid-γGlu}-ECNTATCATQRLAEFLHRSSNNFGPILPPTNVGSNTP-NH2; disulfide 2-7 (inferred)) as the molecule, how does the “Food intake reduction 0-24 h 3 nmol/kg (%)” value (0-24 h) read?
**A.** Its value is 50%.

**Q.** What about the “Food intake reduction 24-48 h 3 nmol/kg (%)” value (24-48 h) of the same molecule?
**A.** The value was 40%.

**Q.** Which results are given for `CC[C@H](C)[C@H](NC(=O)[C@@H]1CCCN1C(=O)CNC(=O)[C@H](Cc1ccccc1)NC(=O)[C@H](CC(N)=O)NC(=O)[C@H](CC(N)=O)NC(=O)[C@H](CO)NC(=O)[C@H](CO)NC(=O)[C@H](Cc1c[nH]cn1)NC(=O)[C@H](Cc1c[nH]cn1)NC(=O)[C@H](CC(C)C)NC(=O)[C@H](Cc1ccccc1)NC(=O)[C@H](CCC(=O)O)NC(=O)[C@H](C)NC(=O)[C@H](CC(C)C)NC(=O)[C@H](CCCNC(=N)N)NC(=O)[C@H](CCC(N)=O)NC(=O)[C@@H](NC(=O)[C@H](C)NC(=O)[C@@H]1CSSC[C@H](NC(=O)[C@H](CCCCN)NC(=O)CC[C@H](NC(=O)CCCCCCCCCCCCCCCCCCC(=O)O)C(=O)O)C(=O)N[C@@H](CC(N)=O)C(=O)N[C@@H]([C@@H](C)O)C(=O)N[C@@H](C)C(=O)N[C@@H]([C@@H](C)O)C(=O)N1)[C@@H](C)O)C(=O)N[C@@H](CC(C)C)C(=O)N1CCC[C@H]1C(=O)N1CCC[C@H]1C(=O)N[C@H](C(=O)N[C@@H](CC(N)=O)C(=O)N[C@H](C(=O)NCC(=O)N[C@@H](CO)C(=O)N[C@@H](CC(N)=O)C(=O)N[C@H](C(=O)N[C@@H](Cc1ccc(O)cc1)C(N)=O)[C@@H](C)O)C(C)C)[C@@H](C)O` [Example 27, N-alpha-[(S)-4-Carboxy-4-(19-carboxynonadecanoylamino)butyryl]-[Glu14,His17]-pramlintide] ({C20 diacid-γGlu}-KCNTATCATQRLAEFLHHSSNNFGPILPPTNVGSNTY-NH2; disulfide 2-7 (inferred))?
**A.** Food intake reduction 0-24 h 3 nmol/kg (%) (0-24 h): 56%; Food intake reduction 24-48 h 3 nmol/kg (%) (24-48 h): 53%

**Q.** How did the “Food intake reduction 0-24 h 3 nmol/kg (%)” value (0-24 h) turn out when `CC[C@H](C)[C@H](NC(=O)[C@@H]1CCCN1C(=O)CNC(=O)[C@H](Cc1ccccc1)NC(=O)[C@H](CC(N)=O)NC(=O)[C@H](CC(N)=O)NC(=O)[C@H](CO)NC(=O)[C@H](CO)NC(=O)[C@H](CCCNC(=N)N)NC(=O)[C@@H](NC(=O)[C@H](CC(C)C)NC(=O)[C@H](Cc1ccccc1)NC(=O)[C@H](CCC(=O)O)NC(=O)[C@H](C)NC(=O)[C@H](CC(C)C)NC(=O)[C@H](CCCNC(=N)N)NC(=O)[C@H](CCC(N)=O)NC(=O)[C@@H](NC(=O)[C@H](C)NC(=O)[C@@H]1CSSC[C@H](NC(=O)[C@H](Cc2c[nH]cn2)NC(=O)CC[C@H](NC(=O)CCCCCCCCCCCCCCCCCCC(=O)O)C(=O)O)C(=O)N[C@@H](CC(N)=O)C(=O)N[C@@H]([C@@H](C)O)C(=O)N[C@@H](C)C(=O)N[C@@H]([C@@H](C)O)C(=O)N1)[C@@H](C)O)C(C)C)C(=O)N[C@@H](CC(C)C)C(=O)N1CCC[C@H]1C(=O)N1CCC[C@H]1C(=O)N[C@H](C(=O)N[C@@H](CC(N)=O)C(=O)N[C@H](C(=O)NCC(=O)N[C@@H](CO)C(=O)N[C@@H](CC(N)=O)C(=O)N[C@H](C(=O)N[C@@H](Cc1ccc(O)cc1)C(N)=O)[C@@H](C)O)C(C)C)[C@@H](C)O` [Example 15] ({C20 diacid-γGlu}-HCNTATCATQRLAEFLVRSSNNFGPILPPTNVGSNTY-NH2; disulfide 2-7 (inferred)) was run?
**A.** The value was 56%.

**Q.** And the “Food intake reduction 24-48 h 3 nmol/kg (%)” value (24-48 h)?
**A.** Its value is 59%.

**Q.** For `CC[C@H](C)[C@H](NC(=O)[C@@H]1CCCN1C(=O)CNC(=O)[C@H](Cc1ccccc1)NC(=O)[C@H](CC(N)=O)NC(=O)[C@H](CC(N)=O)NC(=O)[C@H](CO)NC(=O)[C@H](CO)NC(=O)[C@H](CCCNC(=N)N)NC(=O)[C@H](Cc1c[nH]cn1)NC(=O)[C@H](CC(C)C)NC(=O)[C@H](Cc1ccccc1)NC(=O)[C@H](CCC(=O)O)NC(=O)[C@H](C)NC(=O)[C@H](CC(C)C)NC(=O)[C@H](CCCNC(=N)N)NC(=O)[C@H](CCC(N)=O)NC(=O)[C@@H](NC(=O)[C@H](C)NC(=O)[C@@H]1CSSC[C@H](NC(=O)[C@H](CCCN)NC(=O)[C@@H](CCCNC(=N)N)NC(=O)[C@@H](CCCNC(=N)N)NC(=O)COCCOCCNC(=O)COCCOCCNC(=O)CC[C@H](NC(=O)CCCCCCCCCCCCCCCCC(=O)O)C(=O)O)C(=O)N[C@@H](CC(N)=O)C(=O)N[C@@H]([C@@H](C)O)C(=O)N[C@@H](C)C(=O)N[C@@H]([C@@H](C)O)C(=O)N1)[C@@H](C)O)C(=O)N[C@@H](CC(C)C)C(=O)N1CCC[C@H]1C(=O)N1CCC[C@H]1C(=O)N[C@H](C(=O)N[C@@H](CC(N)=O)C(=O)N[C@H](C(=O)NCC(=O)N[C@@H](CO)C(=O)N[C@@H](CC(N)=O)C(=O)N[C@H](C(=O)N[C@@H](Cc1ccc(O)cc1)C(N)=O)[C@@H](C)O)C(C)C)[C@@H](C)O` [Example 120, N-alpha-[2-(2-{2-[2-(2-{2-[(S)-4-Carboxy-4-(17-carboxyheptadecanoylamino)butyrylamino]ethoxy}ethoxy)acetylamino]ethoxy}ethoxy)acetyl]-D-Arg-D-Arg-[Orn1,Glu14,His17,Arg18]-pramlintide] ({C18 diacid-γGlu-AEEA-AEEA}-[dR][dR][Orn]CNTATCATQRLAEFLHRSSNNFGPILPPTNVGSNTY-NH2; disulfide 4-9 (inferred)), which “Food intake reduction 0-24 h 3 nmol/kg (%)” value (0-24 h) is on record?
**A.** The value was 53%.

**Q.** What about the “Food intake reduction 24-48 h 3 nmol/kg (%)” value (24-48 h) of the same molecule?
**A.** Its value is 2%.

**Q.** For `CC[C@H](C)[C@H](NC(=O)[C@@H]1CCCN1C(=O)CNC(=O)[C@H](Cc1ccccc1)NC(=O)[C@H](CC(N)=O)NC(=O)[C@H](CC(N)=O)NC(=O)[C@H](CO)NC(=O)[C@H](CO)NC(=O)[C@H](CCCNC(=N)N)NC(=O)[C@H](Cc1c[nH]cn1)NC(=O)[C@H](CC(C)C)NC(=O)[C@H](Cc1ccccc1)NC(=O)[C@H](CCC(=O)O)NC(=O)[C@H](C)NC(=O)[C@H](CC(C)C)NC(=O)[C@H](CCCNC(=N)N)NC(=O)[C@H](CCC(N)=O)NC(=O)[C@@H](NC(=O)[C@H](C)NC(=O)[C@@H]1CSSC[C@H](NC(=O)[C@H](Cc2c[nH]cn2)NC(=O)CC[C@H](NC(=O)CCCCCCCCCCCCCCCCCCC(=O)O)C(=O)O)C(=O)N[C@@H](CC(N)=O)C(=O)N[C@@H]([C@@H](C)O)C(=O)N[C@@H](C)C(=O)N[C@@H]([C@@H](C)O)C(=O)N1)[C@@H](C)O)C(=O)N[C@@H](CC(C)C)C(=O)N1CCC[C@H]1C(=O)N1CCC[C@H]1C(=O)N[C@H](C(=O)N[C@@H](CC(N)=O)C(=O)N[C@H](C(=O)NCC(=O)N[C@@H](CO)C(=O)N[C@@H](CC(N)=O)C(=O)N[C@H](C(=O)N[C@@H](Cc1ccc(O)cc1)C(N)=O)[C@@H](C)O)C(C)C)[C@@H](C)O` [Example 1, N-alpha-[(S)-4-Carboxy-4-(19-carboxynonadecanoylamino)butyryl]-[His1,Glu14,His17,Arg18]-pramlintide] ({C20 diacid-γGlu}-HCNTATCATQRLAEFLHRSSNNFGPILPPTNVGSNTY-NH2; disulfide 2-7 (inferred); C-terminus assumed), which “Food intake reduction 0-24 h 3 nmol/kg (%)” value (0-24 h) is on record?
**A.** The value was 50%.

**Q.** What about the “Food intake reduction 24-48 h 3 nmol/kg (%)” value (24-48 h) of the same molecule?
**A.** The value was 45%.

**Q.** What about the “Food intake reduction 0-24 h 30 nmol/kg (%)” value (30 nmol/kg, 0-24 h) of the same molecule?
**A.** The value was 93%.

**Q.** And the “Food intake reduction 24-48 h 30 nmol/kg (%)” value (30 nmol/kg, 24-48 h)?
**A.** The value was 92%.
